The source of these data is patent US10336730B2, “Substituted glycine derived FXIA inhibitors” (BRISTOL-MYERS SQUIBB COMPANY, priority 2015, dated 2019).

A word on the Ki: it is the equilibrium dissociation constant of an inhibitor or competing ligand from its target. Higher therefore signals a looser hold on the target.

Molecules are shown by their SMILES.

This test deals with T1, purified human Factor XIa (Homo sapiens, UniProt P03951).
T1 construct: purchased Haematologic Technologies
T1 sequence (P03951 388-625 limits assumed): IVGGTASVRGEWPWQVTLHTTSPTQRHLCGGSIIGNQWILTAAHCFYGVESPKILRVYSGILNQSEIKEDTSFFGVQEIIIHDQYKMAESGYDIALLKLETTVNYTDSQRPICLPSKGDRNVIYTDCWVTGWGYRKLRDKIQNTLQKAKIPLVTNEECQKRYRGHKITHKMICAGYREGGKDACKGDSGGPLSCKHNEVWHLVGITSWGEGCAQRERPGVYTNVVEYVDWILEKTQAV
T1 sequence (P03951 19-387 partner limits assumed): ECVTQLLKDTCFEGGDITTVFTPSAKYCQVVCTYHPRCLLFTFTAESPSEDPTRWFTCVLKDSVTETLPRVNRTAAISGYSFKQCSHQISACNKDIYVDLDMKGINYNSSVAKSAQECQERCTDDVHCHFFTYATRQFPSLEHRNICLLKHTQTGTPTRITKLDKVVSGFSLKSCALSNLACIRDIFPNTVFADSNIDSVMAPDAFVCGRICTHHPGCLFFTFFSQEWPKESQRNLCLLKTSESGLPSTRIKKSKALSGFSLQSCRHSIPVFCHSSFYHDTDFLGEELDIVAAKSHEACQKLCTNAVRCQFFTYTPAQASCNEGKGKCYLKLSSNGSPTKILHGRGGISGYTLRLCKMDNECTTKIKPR
As to the kind of experiment: Factor XIa enzyme inhibition assay (chromogenic substrate S-2366), Ki. To be noted: substrate S-2366, pH 7.4. It counts as biochemical. The protocol:
The effectiveness of compounds of the present invention as inhibitors of the coagulation Factors XIa, VIIa, IXa, Xa, XIIa, plasma kallikrein, thrombin, chemytrypsin or trypsin can be determined using a relevant purified serine protease, respectively, and an appropriate synthetic substrate. The rate of hydrolysis of the chromogenic or fluorogenic substrate by the relevant serine protease was measured both in the absence and presence of compounds of the present invention. […] A decrease in the rate of absorbance or fluorescence change in the presence of inhibitor is indicative of enzyme inhibition. Such methods are known to one skilled in the art. The results of this assay are expressed as the inhibitory constant, Ki.
Factor XIa determinations were made in 50 mM HEPES buffer at pH 7.4 containing 145 mM NaCl, 5 mM KCl, and 0.1% PEG 8000 (polyethylene glycol; JT Baker or Fisher Scientific). Determinations were made using purified human Factor XIa at a final concentration of […] (Haematologic Technologies) and the synthetic substrate S-2366 (pyroGlu-Pro-Arg-pNA; CHROMOGENIX® or AnaSpec) at a concentration of 0.0002-0.001 M.
Values of Ki were determined by allowing the protease to react with the substrate in the presence of the inhibitor. Reactions were allowed to go for periods of 20-180 minutes (depending on the protease) and the velocities (rate of absorbance or fluorescence change versus time) were measured. The following relationships were used to calculate Ki values: (Vmax*S)/(Km+S) (vo−vs)/vs=I/(Ki*(1+S/Km)) for a competitive inhibitor with one binding site; or vs/vo=A+(B−A)/(1+(IC50/(I)^n)); and Ki=IC50/(1+S/Km) for a competitive inhibitor where: […]
For the molecule `CN1CCC(CNC(=O)[C@H](Cc2ccccc2)n2cnc(-c3cc(Cl)ccc3-n3cc(Cl)nn3)cc2=O)C1` (mixture of isomers) [Example 48, (2S)-2-(4-(5-chloro-2-(4-chloro-1H-1,2,3-triazol-1-yl)phenyl)-6-oxopyrimidin-1(6H)-yl)-N-((1-methylpyrrolidin-3-yl)methyl)-3-phenylpropanamide], the affinity, expressed as Ki, was 7370 nM. Then `O=C([C@H](Cc1ccccc1)n1cnc(-c2cc(Cl)ccc2-n2cc(Cl)nn2)cc1=O)N1CCC(N2C(=O)CCC2O)CC1` (mixture of isomers) [Example 49, 6-(5-chloro-2-(4-chloro-1H-1,2,3-triazol-1-yl)phenyl)-3-((2S)-1-(4-(2-hydroxy-5-oxopyrrolidin-1-yl)piperidin-1-yl)-1-oxo-3-phenylpropan-2-yl)pyrimidin-4(3H)-one], with 7370 nM; and `N#Cc1cccc(C[C@@H](C(=O)Nc2ccc(C(=O)O)cc2)N2CCC(c3cc(Cl)ccc3-n3ccnn3)=CC2=O)c1` [Compound 138, (S)-4-(2-(4-(5-chloro-2-(1H-1,2,3-triazol-1-yl)phenyl)-6-oxo-3,6-dihydropyridin-1(2H)-yl)-3-(3-cyanophenyl)propanamido) benzoic Acid], with 41.6 nM; and `NC(=O)c1cccc(C[C@@H](C(=O)Nc2ccc(C(=O)O)cc2)N2CCC(c3cc(Cl)ccc3-n3ccnn3)=CC2=O)c1` [Compound 139, (S)-4-(3-(3-carbamoylphenyl)-2-(4-(5-chloro-2-(1H-1,2,3-triazol-1-yl)phenyl)-6-oxo-3,6-dihydropyridin-1(2H)-yl)propanamido)benzoic Acid], with 25.2 nM.

Regarding `CCOC(=O)Cc1ccc(NC(=O)[C@H](Cc2ccccc2)n2cnc(-c3cc(Cl)ccc3-n3cc(Cl)nn3)cc2=O)cc1` [Example 20, ethyl (S)-2-(4-(2-(4-(5-chloro-2-(4-chloro-1H-1,2,3-triazol-1-yl)phenyl)-6-oxopyrimidin-1(6H)-yl)-3-phenylpropanamido)phenyl)acetate], the Ki was determined as 128 nM.

`O=C(Nc1ncn(CC2CCCC2)n1)[C@H](Cc1ccccc1)n1cnc(-c2cc(Cl)ccc2-n2cc(Cl)nn2)cc1=O` [Example 21, (S)-2-(4-(5-chloro-2-(4-chloro-1H-1,2,3-triazol-1-yl)phenyl)-6-oxopyrimidin-1(6H)-yl)-N-(1-(cyclopentylmethyl)-1H-1,2,4-triazol-3-yl)-3-phenylpropanamide] had a Ki of 553 nM. Then `COC(=O)c1ccc(NC(=O)[C@H](Cc2ccccc2)n2cnc(-c3cc(Cl)ccc3-n3cc(Cl)nn3)cc2=O)cc1` [Example 22, methyl (S)-4-(2-(4-(5-chloro-2-(4-chloro-1H-1,2,3-triazol-1-yl)phenyl)-6-oxopyrimidin-1(6H)-yl)-3-phenylpropanamido)benzoate], with 83.7 nM.

As to `O=C(Nc1ccc(Cc2ccncc2)cc1)[C@H](Cc1ccccc1)n1cnc(-c2cc(Cl)ccc2-n2cc(Cl)nn2)cc1=O` [Example 24, (S)-2-(4-(5-chloro-2-(4-chloro-1H-1,2,3-triazol-1-yl)phenyl)-6-oxopyrimidin-1(6H)-yl)-3-phenyl-N-(4-(pyridin-4-ylmethyl)phenyl)propanamide], the Ki was 112 nM. Then `O=C(Nc1ccc(-c2ccncc2)cc1)[C@H](Cc1ccccc1)n1cnc(-c2cc(Cl)ccc2-n2cc(Cl)nn2)cc1=O` [Example 25, (S)-2-(4-(5-chloro-2-(4-chloro-1H-1,2,3-triazol-1-yl)phenyl)-6-oxopyrimidin-1(6H)-yl)-3-phenyl-N-(4-(pyridin-4-yl)phenyl)propanamide], with 49.6 nM; and `O=C(Nc1cccc2[nH]ccc12)[C@H](Cc1ccccc1)n1cnc(-c2cc(Cl)ccc2-n2cc(Cl)nn2)cc1=O` [Example 26, (S)-2-(4-(5-chloro-2-(4-chloro-1H-1,2,3-triazol-1-yl)phenyl)-6-oxopyrimidin-1(6H)-yl)-N-(1H-indol-4-yl)-3-phenylpropanamide], with 22.3 nM; and `Cn1cnc2cc(NC(=O)[C@H](Cc3ccccc3)n3cnc(-c4cc(Cl)ccc4-n4cc(Cl)nn4)cc3=O)cnc21` [Example 27, (S)-2-(4-(5-chloro-2-(4-chloro-1H-1,2,3-triazol-1-yl)phenyl)-6-oxopyrimidin-1(6H)-yl)-N-(3-methyl-3H-imidazo[4,5-b]pyridin-6-yl)-3-phenylpropanamide], with 420 nM. The same measure for `O=C(Nc1ccc2c(c1)CS(=O)(=O)C2)[C@H](Cc1ccccc1)n1cnc(-c2cc(Cl)ccc2-n2cc(Cl)nn2)cc1=O` [Example 28, (S)-2-(4-(5-chloro-2-(4-chloro-1H-1,2,3-triazol-1-yl)phenyl)-6-oxopyrimidin-1(6H)-yl)-N-(2,2-dioxido-1,3-dihydrobenzo[c]thiophen-5-yl)-3-phenylpropanamide]: 80.3 nM. The same measure for `O=C(Nc1cccc2ncccc12)[C@H](Cc1ccccc1)n1cnc(-c2cc(Cl)ccc2-n2cc(Cl)nn2)cc1=O` [Example 29, (S)-2-(4-(5-chloro-2-(4-chloro-1H-1,2,3-triazol-1-yl)phenyl)-6-oxopyrimidin-1(6H)-yl)-3-phenyl-N-(quinolin-5-yl)propanamide]: 162 nM; for `O=C(Nc1ccc2ncncc2c1)[C@H](Cc1ccccc1)n1cnc(-c2cc(Cl)ccc2-n2cc(Cl)nn2)cc1=O` [Example 31, (S)-2-(4-(5-chloro-2-(4-chloro-1H-1,2.3-triazol-1-yl)phenyl)-6-oxopyrimidin-1(6H)-yl)-3-phenyl-N-(quinazolin-6-yl)propanamide]: 10.3 nM; for `Cn1cc(NC(=O)[C@H](Cc2ccccc2)n2cnc(-c3cc(Cl)ccc3-n3cc(Cl)nn3)cc2=O)nn1` [Example 32, (S)-2-(4-(5-chloro-2-(4-chloro-1H-1,2,3-triazol-1-yl)phenyl)-6-oxopyrimidin-1(6H)-yl)-N-(1-methyl-1H-1,2,3-triazol-4-yl)-3-phenylpropanamide]: 341 nM. Regarding `Cc1nc2ccc(NC(=O)[C@H](Cc3ccccc3)n3cnc(-c4cc(Cl)ccc4-n4cc(Cl)nn4)cc3=O)cc2o1` [Example 33, (S)-2-(4-(5-chloro-2-(4-chloro-1H-1,2,3-triazol-1-yl)phenyl)-6-oxopyrimidin-1(6H)-yl)-N-(2-methylbenzo[d]oxazol-6-yl)-3-phenylpropanamide], the affinity, expressed as Ki, was 37.8 nM. Molecule `CCOC(=O)Cn1ccc(NC(=O)[C@H](Cc2ccccc2)n2cnc(-c3cc(Cl)ccc3-n3cc(Cl)nn3)cc2=O)n1` [Example 34, ethyl (S)-2-(3-(2-(4-(5-chloro-2-(4-chloro-1H-1,2,3-triazol-1-yl)phenyl)-6-oxopyrimidin-1(6H)-yl)-3-phenylpropanamido)-1H-pyrazol-1-yl)acetate] showed a Ki of 1660 nM.

Take `CC1(C)Oc2ccc(NC(=O)[C@H](Cc3ccccc3)n3cnc(-c4cc(Cl)ccc4-n4cc(Cl)nn4)cc3=O)nc2NC1=O` [Example 35, (S)-2-(4-(5-chloro-2-(4-chloro-1H-1,2,3-triazol-1-yl)phenyl)-6-oxopyrimidin-1(6H)-yl)-N-(2,2-dimethyl-3-oxo-3,4-dihydro-2H-pyrido[3,2-b][1,4]oxazin-6-yl)-3-phenylpropanamide]: the Ki is 4070 nM. Then `O=C(Nc1cnns1)[C@H](Cc1ccccc1)n1cnc(-c2cc(Cl)ccc2-n2cc(Cl)nn2)cc1=O` [Example 36, (S)-2-(4-(5-chloro-2-(4-chloro-1H-1,2,3-triazol-1-yl)phenyl)-6-oxopyrimidin-1(6H)-yl)-3-phenyl-N-(1,2,3-thiadiazol-5-yl)propanamide], with 1340 nM. Then `O=C(Nc1ccc(N2CCOCC2=O)cc1)[C@H](Cc1ccccc1)n1cnc(-c2cc(Cl)ccc2-n2cc(Cl)nn2)cc1=O` [Example 37, (S)-2-(4-(5-chloro-2-(4-chloro-1H-1,2,3-triazol-1-yl)phenyl)-6-oxopyrimidin-1(6H)-yl)-N-(4-(3-oxomorpholino)phenyl)-3-phenylpropanamide], with 155 nM.

For `O=C1NCc2cc(F)c(NC(=O)[C@H](Cc3ccccc3)n3cnc(-c4cc(Cl)ccc4-n4cc(Cl)nn4)cc3=O)cc21` [Example 38, (S)-2-(4-(5-chloro-2-(4-chloro-1H-1,2,3-triazol-1-yl)phenyl)-6-oxopyrimidin-1(6H)-yl)-N-(6-fluoro-3-oxoisoindolin-5-yl)-3-phenylpropanamide], the Ki came to 98.4 nM. Then `Cc1ncn(-c2ccc(NC(=O)[C@H](Cc3ccccc3)n3cnc(-c4cc(Cl)ccc4-n4cc(Cl)nn4)cc3=O)cn2)n1` [Example 39, (S)-2-(4-(5-chloro-2-(4-chloro-1H-1,2,3-triazol-1-yl)phenyl)-6-oxopyrimidin-1(6H)-yl)-N-(6-(3-methyl-1H-1,2,4-triazol-1-yl)pyridin-3-yl)-3-phenylpropanamide], with 110 nM.

In turn, `COC(=O)c1cc(NC(=O)[C@H](Cc2ccccc2)n2cnc(-c3cc(Cl)ccc3-n3cc(Cl)nn3)cc2=O)cn1C` [Example 40, methyl (S)-4-(2-(4-(5-chloro-2-(4-chloro-1H-1,2,3-triazol-1-yl)phenyl)-6-oxopyrimidin-1(6H)-yl)-3-phenylpropanamido)-1-methyl-1H-pyrrole-2-carboxylate] yielded a Ki of 172 nM.
